Assay: Clinical pharmacokinetic study (RUN-001): vortioxetine 5 mg once daily for 29 days, then 28 days washout, obese vs normal-weight subjects
Assay type: in vivo, human
Settings: both, human, in vivo
Experimental: To test if the obese patients would require different washout guidelines for preventing serotonin syndrome, 16 obese subjects (BMI≥35) and 13 normal subjects (BMI<25) completed a clinical trial where they were administered daily with low doses (5 mg/day) of vortioxetine for 29 days in a controlled study. All subjects were subsequently tracked for 28 days after discontinuing vortioxetine on day 29. Blood samples were collected and processed according to standard techniques.
The normal-weight control group consisted of healthy male and female volunteers aged 18 to 45 years. Their body mass index (BMI) values fell in the range of […]. […] Normal weight and obese subjects were matched as closely as possible for gender and age.
CYP2D6 genotype status was determined from whole blood samples drawn from each subject. Known alleles of CYP2D6 were tested for, as well as the presence of gene duplications (LabCorp, Inc.). CYP2D6 metabolizer status was categorized as ultra-rapid, extensive, intermediate, or poor. Ultra-rapid and poor metabolizers were not included in the study.
All subjects received vortioxetine, 5 mg once daily in the morning, for 29 days. The first dose was on Day 1, and the last dose was on Day 29. Blood sampling continued for another 28 days after the last dose, through Day 57.
Subjects spent 12 hours in the study unit on Day 1 (first dose of vortioxetine) and Day 29 (last dose of vortioxetine). On those two study days, venous blood samples (7 mL each) were drawn prior to the dose of vortioxetine, and at 1, 2, 4, 6, 8, 10, and 12 hours after dosage.
During the 29-day period of daily vortioxetine administration, subjects returned to the study unit in the morning of the following study days: 2, 3, 5, 8, 10, 12, 15, 17, 19, 22, 24, 26, and 29. At each visit, a single venous blood sample (7 mL) was drawn before the daily dose of vortioxetine. Subjects underwent a brief interview to assess subjective effects and possible adverse events. Subjects were then discharged until the next scheduled visit. They were provided with vortioxetine doses sufficient for daily morning administration until the next visit. No more than 2 consecutive doses of vortioxetine were taken on an outpatient basis.
On Day 29 (the final dose of vortioxetine), subjects spent 12 hours in the study unit as described above. They returned to the study unit for a single blood sample on the mornings of the following Days: 30, 31, 33, 36, 38, 40, 43, 45, 47, 50, 52, 54, and 57.
Plasma concentrations of vortioxetine were determined by liquid chromatography—mass spectrometry using a Shimadzu HPLC system coupled to a Sciex API-4000 mass spectrometer.
The internal standard (vortioxetine-d8) was added to calibration standards, quality control samples, and unknown study samples. All samples were extracted with methyl tert-butyl ether. The organic phase was separated and evaporated to dryness; the reconstituted extract was injected into the HPLC system. The HPLC column was a Unison UK-C18, 50 mm×2 mm, 3 micron particle size. The mobile phase consisted of an organic component (0.1% formic acid in acetonitrile) and an aqueous component (0.1% formic acid and 2 mM ammonium acetate in water). This was delivered in gradient mode at a net flow rate of 0.4 mL/min, with the organic fraction varying from 40% to 96%. m/z monitored were: 299.1/150.1 for vortioxetine, and 307.1/153 for vortioxetine-d8. The limit of quantitation was 0.1 ng/mL. […] All samples from a given study subject were extracted and analyzed at the same time using the same calibration standards.
Based on the clinical trials discussed above, several equations were derived which allow an individual to calculate the washout period (i.e., the time between stopping vortioxetine and initiating treatment with an MAOI). Data points to consisted of pre-dose plasma vortioxetine concentration (C) on each study day (t), both during (Days 1-29) and after (Days 30-57) the period of vortioxetine administration. […]

For `CC[C@@H]([C@H](C)O)n1ncn(-c2ccc(N3CCN(c4ccc(OC[C@@H]5CO[C@@](Cn6cncn6)(c6ccc(F)cc6F)C5)cc4)CC3)cc2)c1=O` [posaconazole], the elimination half-life was 78.2 h.
